Assay results taken from patent publication US11014953B2, “Trigger-activatable metabolic sugar precursors for cancer-selective labeling and targeting” (priority 2015, dated 2021).

Legend:
[1] = tested on: LS174T cells; assay: Western blot analysis of LS174T cells treated with azido-sugars; type: cell-based
Experimental: Western blot analysis of cells treated with azido-sugars. LS174T cells were seeded onto cell culture flasks (25 cm^2 growth area) at a density of 1×10^6 cells per plate in 5 mL of media. Different azido-sugars were added and incubated with cells for 72 h. The cells were washed with PBS twice and harvested from the flasks using a cell scraper. Cells were pelleted by centrifugation at 1000 rpm for 5 min and re-suspended in 200 μL of lysis buffer (1% SDS, 100 mM Tris.HCl, pH 7.4) containing 1 tablet protease inhibitor (EDTA-free). The lysate was incubated at 4° C. for 30 min, followed by centrifugation at 3000 rcf for 10 min to remove insoluble debris. The total concentration of soluble protein in each sample was determined by bicinchoninic acid (BCA) assay and adjusted to the same concentration. Then 20 μL of the lysate was taken out and incubated with phosphine-PEG3-biotin (2 μL, 5 mM in PBS) at 37° C. for 6 h. Loading buffer was added to each sample and samples were loaded onto 10% SDS-PAGE gel after heating at 95° C. After running the gel for 100 min, proteins were transferred to Hybond P membrane, followed by blocking of the membrane with 5% bovine serum albumin (BSA) in TBST (50 mM Tris.HCl, 150 mM NaCl, 0.1% Tween 20, pH 7.4) for 2 h. The membrane was then incubated with streptavidin-HRP (diluted 1:2000 in TBST) overnight at 4° C., rinsed with TBST for three times and developed by ECL Western Blotting Substrate. For fluorescent visualization of protein bands, 20 μL of cell lysate was directly incubated with DBCO-Cy3 solution for 3 h. After the gel running and membrane transfer, protein bands were visualized using an Image Quant LAS 4010 system with a Cy3/Cy3 (excitation/emission) channel.

[2] = tested on: subcutaneous LS174T tumors; assay: In vivo tumor labeling after intratumoral injection of azido-sugars, DBCO-Cy5 i.v.; design: species or system athymic nude mice; conditions: for In vivo Cy5 fluorescence intensity of pretreated left tumors vs control right tumors: 24 h p.i. of i.v. DBCO-Cy5; for Ex vivo difference in Cy5 FI between treated tumors and control tumors: ex vivo imaging of tumors; for Western blot of tumors (azido-modified glycoproteins): intratumoral once daily for three days, tumors harvested 24 h p.i.; for Cy5 fluorescence of tumor sections (confocal imaging): tumor sections after ex vivo imaging
Experimental: In vivo tumor labeling of Ac4ManAz, Ac3ManAzEt, and Ac3ManAzNB. LS174T tumor models were established on 6 week-old athymic nude mice by subcutaneous injection of LS174T colon cancer cells (1.5 million) in HBSS/matrigel (1/1, v/v) to both flanks. When the tumors grew to 5-6 mm, Ac4ManAz or Ac3ManAzEt or Ac3ManAzNB (25 mM, 20 μL) was injected into the left tumors once daily for three days while the same amount of PBS was injected to the right tumors as control (N=3 per group). At 24 h post the last injection, DBCO-Cy5 (5 mg/kg) was i.v. injected and its biodistribution was monitored via in vivo fluorescence imaging. Prior to imaging, nude mice were placed on the sample stage equipped with anesthesia input and output ports, and imaged by the Maestro In-Vivo Fluorescence Imaging System. The excitation filter of 575-605 nm was used. The tunable emission filter was automatically stepped in 10-nm increments from 630 to 850 nm with an exposure time of 50 ms for images taken at each wavelength. Collected images were analyzed by the Maestro software, which uses spectral unmixing algorithms to subtract autofluorescence from Cy5 signals. Tumors and major organs were harvested from mice at 24 h post injection of DBCO-Cy5. Ex vivo images were collected similarly using the Maestro system. Fluorescence intensity at selected ROIs was quantified using Maestro imaging software. All values were presented as means±standard deviation (n=3).
Western blot analysis of tissues. Tumors and organs harvested from azido-sugar treated mice were transferred into glass tubes containing 2 mL of lysis buffer (1% SDS, 100 mM Tris HCl, pH 7.4), homogenized, and incubated at 4° C. for 30 min. The lysates were then centrifuged at 3000 rcf for 10 min to remove the insoluble debris. Total soluble protein concentrations were determined by BCA assay and adjusted to 5 mg/mL for each group. The rest of procedures were the same as the above-mentioned western blot analysis of cells.
Confocal imaging of tumor tissue sections. After ex vivo imaging, tumors were directly frozen in O.C.T. compound and sectioned on a cryostat (Leica CM3050S) with a thickness of 6-8 μm. DAPI in PBS (2 μg/mL) was added onto the tissue-attaching microscope slides to stain cell nucleus. After 10 min, DAPI solution was removed and tissues were washed with PBS for three times. Coverslips were mounted on the microscope slides with the addition of ProLong Gold antifade reagent, and the prepared sample was stored in dark for confocal imaging.

[3] = tested on: LS174T colon cancer cells; assay: Metabolic labeling of LS174T cells with azido-sugars, azides detected by DBCO-Cy5 (confocal imaging, flow cytometry); type: cell-based
Experimental: General procedures for confocal imaging of azido-sugar labeled cells. Cells were seeded onto coverslips in a 6-well plate at a cell density of 40 k/well. Ac4ManAz or Ac3ManAz derivatives were added with a final concentration of 50 μM and the cells were incubated at 37° C. for 72 h. The medium was removed and washed with PBS for three times. DBCO-Cy5 (50 μM) in Opti-MEM was then added and the cells were incubated for another 1 h. Then the medium was removed and the cells were washed with PBS for three times. 4% paraformaldehyde (PFA) solution was added to fix the cells for 10 min, followed by staining of cell nucleus with DAPI (2 μg/mL) for 10 min. The coverslips were mounted on microscope slides with the addition of ProLong Gold antifade reagent, and the prepared sample was stored in dark for imaging.
General procedures for flow cytometry analysis of azido-sugar labeled cells. Cells were seeded onto coverslips in a 6-well plate at a cell density of 40 k/well. Ac4ManAz or Ac3ManAz derivatives were added and incubated with cells for 72 h. After removal of medium and multiple washing steps, DBCO-Cy5 in opti-MEM was added and incubated with cells at 37° C. for 1 h. The opti-MEM was then removed and cells were washed with PBS for three times. Cells were lifted by incubating with trypsin solution (1 mL) at 37° C. for 3 min and transferred to test tubes with addition of 4% PFA solution (0.5 mL). Twenty thousand cells per sample were analyzed by flow cytometry and data analysis was performed on the FCS Express software.
Ac3ManAzNB mediated controlled cell labeling. LS174T cells were seeded onto coverslips in a 6-well plate at a cell density of 40 k/well. Ac3ManAzNB with a final concentration of 50 μM was added. […] Cells without UV irradiation were continuously incubated for 72 h. Cell samples for confocal imaging and flow cytometry were then prepared following the above-mentioned procedures.
Ac3ManAzHQ mediated controlled cell labeling. LS174T colon cancer cells or Caco-2 colon cancer cells or human fibroblast IMR90 cells were seeded onto coverslips in a 6-well plate at a cell density of 40 k/well and allowed to attach for overnight. Ac3ManAzHQ with a final concentration of 50 μM was added, followed by the addition of curcumin with a final concentration of 50 μM. Cells treated with PBS or Ac3ManAzHQ only were used as control. After 72-h incubation, cell samples for confocal imaging and flow cytometry were prepared following the above-mentioned procedures.
E-S mediated controlled cell labeling in vitro. LS174T colon cancer cells or human fibroblast IMR90 cells were seeded onto coverslips in a 6-well plate at a cell density of 40 k/well. E-S with a final concentration of 50 μM was added, followed by the addition of either TSA (1 μM) or Z-FY-CHO (50 μM). Cells treated with PBS or E-S only were used as the control. After 72-h incubation, the medium was removed and cell samples for confocal imaging and GE-Analyzer measurements were prepared similarly to above-mentioned procedures.

[4] = tested on: LS174T cells; assay: Uptake mechanism of DBCO-Cy5 in E-S pretreated LS174T cells; type: cell-based
Experimental: Uptake mechanism of DBCO-Cy5 or D-D in vitro. LS174T cells were seeded onto a tissue culture dish with cover glass bottom, and incubated with E-S (50 μM) for three days. After multiple washing with PBS, Lysotracker green in fresh medium was added and incubated for 1 h. Then DBCO-Cy5 was added and cells were further incubated for 1 h. Hoechst 33342 (10 μg/mL) and CellMask orange plasma membrane stain (1 μg/mL) were added to stain cell nucleus and cell membrane, respectively for 10 min. After removing the medium and washing with PBS, cells were further incubated at 37° C. At different time points (1 h, 3 h, 6 h, 12 h, and 24 h), cells were imaged under a fluorescence microscope to monitor the uptake of DBCO-Cy5. Cells without E-S pretreatment were used as control. For live cell imaging of D-D treated cells, CellMask deep red plasma membrane stain was used to stain cell membrane and lysosomes were not stained to avoid the interference over fluorescence signals of D-D.

[5] = tested on: cellular HDAC/CTSL activity; assay: Inhibitory effect of TSA and Z-FY-CHO on cellular HDAC/CTSL activity (Naph-Lys reporter); type: cell-based
Experimental: Detection of cellular HDAC/CTSL activity. Cells were seeded in a 24-well plate at a cell density of 8 k/well, and were allowed to attach for overnight. Naph-Lys (50 μM) in OptiMEM was added and incubated with cells for different time (30 min, 1 h, 2 h, and 4 h). After removal of the OptiMEM and washing with PBS twice, cells were fixed with 4% PFA for 10 min and stained with DAPI (2 ng/mL) for 10 min. Average fluorescence intensity of cells were measured on a GE-Analyzer using DAPI and FITC channels. The DAPI channel was used for determining cell number per well. The FITC channel was used to determine the total fluorescence intensity of released Naph-NH2 per well. Data were presented with the average fluorescence intensity per cell.
Inhibitory effect of TSA and Z-FY-CHO on cellular HDAC/CTSL activity. TSA and Z-FY-CHO are known to be the inhibitor of HDAC and CTSL, respectively. To study their inhibitory effect, cells were seeded in a 24-well plate at a cell density of 8 k/well, and were allowed to attach for overnight. Cells were then divided into 4 groups: group 1 cells were added Naph-Lys (50 μM); group 2 cells were added Naph-Lys (50 μM)+TSA (1 μM); group 3 cells were added Naph-Lys (50 μM)+Z-FY-CHO (20 μM); group 4 cells were added PBS as negative control. […] Average fluorescence intensity of cells were measured on a GE-Analyzer using DAPI and FITC channels.

[6] = tested on: MDA-MB-231 breast cancer cells; assay: E-S mediated in vitro labeling of MDA-MB-231 cells; type: cell-based
Experimental: E-S mediated in vitro labeling of MDA-MB-231 cells. MDA-MB-231 breast cancer cells were seeded onto coverslips in a 6-well plate at a cell density of 40 k/well. E-S with a final concentration of 50 μM was added, followed by the addition of either TSA (1 μM) or Z-FY-CHO (50 μM). Cells treated with PBS or E-S only were used as control. After 72-h incubation, the medium was removed and cell samples for confocal imaging and IN cell Analyzer measurements were prepared following the above-mentioned procedures.

## CCOC1O[C@H](COC(C)=O)[C@@H](OC(C)=O)[C@H](OC(C)=O)[C@@H]1NC(=O)CN=[N+]=[N-] (stereo partly drawn) [Ac3ManAzEt]
[1]; 72 h
  Western blot of azido-glycoproteins (biotinylated with phosphine-PEG3-biotin): only two endogenous biotinylated proteins
[2]
  In vivo Cy5 fluorescence intensity of pretreated left tumors vs control right tumors: negligible Cy5 retention enhancement
  Ex vivo difference in Cy5 FI between treated tumors and control tumors: no significant difference
  Western blot of tumors (azido-modified glycoproteins): the same endogenous protein bands as PBS group
  Cy5 fluorescence of tumor sections (confocal imaging): negligible Cy5 fluorescence
[3]; LS174T cells, 50 μM azido-sugar three days (72 h), then DBCO-Cy5 1 h
  Cy5 fluorescence on the cell surface (CLSM): negligible Cy5 fluorescence on the cell surface

## CC(=O)OC[C@H]1OC(OCc2ccccc2[N+](=O)[O-])[C@@H](NC(=O)CN=[N+]=[N-])[C@@H](OC(C)=O)[C@@H]1OC(C)=O (stereo partly drawn) [Ac3ManAzNB]
[1]; with UV
  Western blot of azido-glycoproteins: a series of protein bands
[1]; without UV
  Western blot of azido-glycoproteins: the same two endogenous biotinylated protein bands as PBS group
[2]
  In vivo Cy5 fluorescence intensity of pretreated left tumors vs control right tumors: negligible Cy5 retention enhancement
  Ex vivo difference in Cy5 FI between treated tumors and control tumors: no significant difference
  Western blot of tumors (azido-modified glycoproteins): the same endogenous protein bands as PBS group
  Cy5 fluorescence of tumor sections (confocal imaging): negligible Cy5 fluorescence
[3]; LS174T cells, three days, with UV irradiation (10 min, 10 mW/cm^2)
  Cy5 fluorescence on the cell surface (CLSM): strong Cy5 fluorescence
[3]; LS174T cells, three days, without UV irradiation
  Cy5 fluorescence on the cell surface (CLSM): negligible Cy5 fluorescence on cell surface
[3]; LS174T cells, with UV irradiation compared with Ac3ManAzNB only
  Cy5 fluorescence by flow cytometry: significantly enhanced Cy5 fluorescence

## CC1(C)C(/C=C/C=C/C=C2/N(CCCCCC(=O)NCCC(=O)N3Cc4ccccc4C#Cc4ccccc43)c3ccc(S(=O)(=O)O)cc3C2(C)C)=[N+](CCCS(=O)(=O)[O-])c2ccc(S(=O)(=O)O)cc21 [DBCO-Cy5]
[4]; E-S pretreated LS174T cells
  Further incubation time at which DBCO-Cy5 completely disappeared from the cell membrane: 12 h
[4]; LS174T, DBCO-Cy5 1 h
  Cy5 signal in control cells without E-S pretreatment (passive uptake): Negligible Cy5 signal

## CC(/C=C/C(=O)NO)=C\[C@@H](C)C(=O)c1ccc(N(C)C)cc1 [TSA, Trichostatin A]
[5]
  Turn-on fluorescence intensity of Naph-Lys in the presence of the inhibitor: greatly decreased
[3]; LS174T cells co-incubated with E-S and inhibitor
  Labeling efficiency of E-S on co-incubation with inhibitor: greatly reduced
[6]
  Labeling efficiency of E-S in the presence of inhibitor: significantly decreased the labeling efficiency

## COc1cc(/C=C/C(=O)CC(=O)/C=C/c2ccc(O)c(OC)c2)ccc1O [curcumin]
[3]; LS174T cells, compared with Ac3ManAzHQ only
  Labeling efficiency of Ac3ManAzHQ on co-incubation with NQO1 inhibitor: significant reduction of labeling efficiency
